# Data from patent publication US11214803B2, “Modulators of YAP1 expression” (Ionis Pharmaceuticals, Inc., priority 2019, dated 2022).
# pIC50: −log10 of the molar value. Strand notation (5' to 3'): a small letter for the sugar, then the base; units joined by * are phosphorothioate-linked, units joined directly phosphodiester-linked; [ ] holds rarer units or linkages, { } end groups; capitals alone tell only the bases. k = constrained ethyl (cEt); [5mC] = 5-methylcytosine; d = 2'-deoxy (DNA)
# Assays:
# [1] = test system: Yap1 mRNA; test: Dose-dependent inhibition of human Yap1 in A-431 cells (Example 7, 10,000 cells per well, RTS36584); type: cell-based; conditions: free uptake
# Method in brief: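 A-431 cells at 10,000 per well received modified oligonucleotides by free uptake at several doses. After about 48 hours, Yap1 mRNA was quantified with primer-probe set RTS36584, normalized to RIBOGREEN total RNA and expressed as % untreated control. IC50 came from linear regression on a log/linear plot.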
# [2] = test system: Yap1 mRNA; test: Antisense inhibition of human Yap1 in A-431 cells by cEt gapmers, single dose (Example 4, RTS4814); type: cell-based
# Protocol: Modified oligonucleotides were designed to target a Yap1 nucleic acid and were tested for their effect on Yap1 mRNA level in vitro. The modified oligonucleotides were tested in a series of experiments that had similar culture conditions. Cultured A-431 cells at a density of 5,000 cells per well were treated using free uptake with 2,000 nM of modified oligonucleotide. After a treatment period of approximately 48 hours, RNA was isolated from the cells and Yap1 mRNA levels were measured by quantitative real-time RTPCR. Human primer probe set RTS4814 was used to measure mRNA levels. Yap1 mRNA levels were normalized to total RNA content, as measured by RIBOGREEN®. Results are presented in the tables below as percent control of the amount of Yap1 mRNA relative to untreated control cells (% UTC). The modified oligonucleotides with percent control values marked with an asterisk (*) target the amplicon region of the primer probe set. Additional assays may be used to measure the potency and efficacy of the modified oligonucleotides targeting the amplicon region.
# The newly designed modified oligonucleotides in the Tables below were designed as 3-10-3 cEt gapmers. The gapmers are 16 nucleosides in length, wherein the central gap segment comprises of ten 2′-deoxynucleosides and is flanked by wing segments on the 5′ direction and the 3′ direction comprising three nucleosides each. Each nucleoside in the 5′ wing segment and each nucleoside in the 3′ wing segment has a cEt sugar modification. The internucleoside linkages throughout each gapmer are phosphorothioate (P═S) linkages. All cytosine residues throughout each gapmer are 5-methylcytosines.
# “Start site” indicates the 5′-most nucleoside to which the gapmer is targeted in the human gene sequence. “Stop site” indicates the 3′-most nucleoside to which the gapmer is targeted human gene sequence. […] Activity of the modified oligonucleotide may be defined in a different experiment.
# [3] = Table 14, A-431 cells, 5,000 cells per well, free uptake, 2,000 nM, approximately 48 hours, RTS4814, normalized to RIBOGREEN, Yap1 mRNA relative to untreated control, * = targets amplicon region of primer probe set
# [4] = Table 15, A-431 cells, 5,000 cells per well, free uptake, 2,000 nM, approximately 48 hours, RTS4814, normalized to RIBOGREEN, Yap1 mRNA relative to untreated control, * = targets amplicon region of primer probe set
# [5] = Table 16, A-431 cells, 5,000 cells per well, free uptake, 2,000 nM, approximately 48 hours, RTS4814, normalized to RIBOGREEN, Yap1 mRNA relative to untreated control cells
# [6] = Table 17, A-431 cells, 5,000 cells per well, free uptake, 2,000 nM, approximately 48 hours, RTS4814, normalized to RIBOGREEN, Yap1 mRNA relative to untreated control cells
# [7] = Yap1 mRNA remaining as percent of untreated control, 3-10-3 cEt gapmers, A-431 cells, Table 36
# [8] = Yap1 mRNA remaining as percent of untreated control, 3-10-3 cEt gapmers, A-431 cells, Table 37
substance,measurement,setting,value
958813 (kT*kT*kA*d[5mC]*dA*dG*dA*dG*dA*dG*dA*dT*dT*k[5mC]*kA*kT; antisense) [compound 958813],"Yap1 mRNA, % UTC","[1]; Table 60, 15.6 nM, A-431 cells 10,000 cells per well, 48 hours",81 % UTC
same,"Yap1 mRNA, % UTC","[1]; Table 60, 62.5 nM, A-431 cells 10,000 cells per well, 48 hours",79 % UTC
same,"Yap1 mRNA, % UTC","[1]; Table 60, 4000.00 nM, A-431 cells 10,000 cells per well, 48 hours",29 % UTC
same,pIC50,"[1]; Table 60, A-431 cells 10,000 cells per well",6.70
958819 (kT*kG*k[5mC]*dT*dT*d[5mC]*dA*dA*d[5mC]*dA*dT*dT*dG*kT*kT*k[5mC]; antisense) [compound 958819],"Yap1 mRNA, % UTC","[1]; 15.6 nM, A-431 cells, 10,000 cells per well, approximately 48 hours",79 % UTC
same,"Yap1 mRNA, % UTC","[1]; 62.5 nM, A-431 cells, 10,000 cells per well, approximately 48 hours",63 % UTC
same,"Yap1 mRNA, % UTC","[1]; 4000.00 nM, A-431 cells, 10,000 cells per well, approximately 48 hours",19 % UTC
same,pIC50,"[1]; A-431 cells, approximately 48 hours, linear regression on log/linear plot",7.00
1074112 (kT*k[5mC]*k[5mC]*dA*dA*d[5mC]*dT*d[5mC]*d[5mC]*d[5mC]*dT*dT*dG*kA*k[5mC]*kG; antisense) [Compound 1074112],YAP1 (% UTC),[2]; [3],83 % UTC
1074113 (k[5mC]*kT*k[5mC]*d[5mC]*dA*dA*d[5mC]*dT*d[5mC]*d[5mC]*d[5mC]*dT*dT*kG*kA*k[5mC]; antisense) [Compound 1074113],YAP1 (% UTC),[2]; [4],61 % UTC
1074114 (kG*kA*kA*d[5mC]*dT*dT*dT*dT*dT*d[5mC]*d[5mC]*d[5mC]*dT*k[5mC]*k[5mC]*kA; antisense) [Compound 1074114],YAP1 (% UTC),[2]; [5],30 % UTC
1074115 (antisense kA*kG*kA*dA*d[5mC]*dT*dT*dT*dT*dT*d[5mC]*d[5mC]*d[5mC]*kT*k[5mC]*k[5mC]) [Compound 1074115],YAP1 (% UTC),[2]; [6],33 % UTC
1074134 (k[5mC]*kG*k[5mC]*dG*dG*d[5mC]*d[5mC]*d[5mC]*d[5mC]*dG*d[5mC]*dA*dT*k[5mC]*k[5mC]*k[5mC]; antisense) [compound 1074134],YAP1 (% UTC),[2]; [7],79 % UTC
1074135 (k[5mC]*k[5mC]*kG*d[5mC]*dG*dG*d[5mC]*d[5mC]*d[5mC]*d[5mC]*dG*d[5mC]*dA*kT*k[5mC]*k[5mC]; antisense) [compound 1074135],YAP1 (% UTC),[2]; [8],91 % UTC
1074144 (antisense kA*kG*k[5mC]*dG*dG*d[5mC]*dG*dA*d[5mC]*dG*dG*d[5mC]*dT*kG*k[5mC]*kG) [Compound 1074144],YAP1 (% UTC),[2]; [3],92 % UTC
1074145 (antisense kA*kA*kG*d[5mC]*dG*dG*d[5mC]*dG*dA*d[5mC]*dG*dG*d[5mC]*kT*kG*k[5mC]) [Compound 1074145],YAP1 (% UTC),[2]; [4],73 % UTC
1074146 (antisense kG*kA*kA*dG*d[5mC]*dG*dG*d[5mC]*dG*dA*d[5mC]*dG*dG*k[5mC]*kT*kG) [Compound 1074146],YAP1 (% UTC),[2]; [5],91 % UTC
1074147 (antisense kA*kG*kA*dA*dG*d[5mC]*dG*dG*d[5mC]*dG*dA*d[5mC]*dG*kG*k[5mC]*kT) [Compound 1074147],YAP1 (% UTC),[2]; [6],23 % UTC
1074166 (antisense kA*k[5mC]*k[5mC]*d[5mC]*dA*dG*dG*d[5mC]*dG*dA*dG*d[5mC]*dG*kA*kG*kG) [compound 1074166],YAP1 (% UTC),[2]; [7],72 % UTC
1074167 (antisense k[5mC]*kG*k[5mC]*dA*d[5mC]*d[5mC]*d[5mC]*d[5mC]*d[5mC]*dT*dG*dA*d[5mC]*k[5mC]*k[5mC]*kA) [compound 1074167],YAP1 (% UTC),[2]; [8],58 % UTC
1074176 (antisense k[5mC]*kT*k[5mC]*d[5mC]*d[5mC]*d[5mC]*d[5mC]*dG*dA*d[5mC]*dG*d[5mC]*dG*k[5mC]*kA*k[5mC]) [Compound 1074176],YAP1 (% UTC),[2]; [3],84 % UTC
1074177 (antisense k[5mC]*k[5mC]*kT*d[5mC]*d[5mC]*d[5mC]*d[5mC]*d[5mC]*dG*dA*d[5mC]*dG*d[5mC]*kG*k[5mC]*kA) [Compound 1074177],YAP1 (% UTC),[2]; [4],69 % UTC
1074178 (antisense kG*k[5mC]*k[5mC]*dT*d[5mC]*d[5mC]*d[5mC]*d[5mC]*d[5mC]*dG*dA*d[5mC]*dG*k[5mC]*kG*k[5mC]) [Compound 1074178],YAP1 (% UTC),[2]; [5],95 % UTC
1074179 (antisense k[5mC]*kG*kG*dG*dA*dT*d[5mC]*d[5mC]*dA*dT*dG*dG*d[5mC]*kT*kT*k[5mC]) [Compound 1074179],YAP1 (% UTC),[2]; [6],49 % UTC
1074198 (antisense kT*kT*kG*d[5mC]*d[5mC]*d[5mC]*dG*dG*dG*dT*d[5mC]*d[5mC]*dG*kG*kA*k[5mC]) [compound 1074198],YAP1 (% UTC),[2]; [7],112 % UTC
1074199 (antisense kG*k[5mC]*k[5mC]*dG*dG*dT*dT*dG*d[5mC]*d[5mC]*d[5mC]*dG*dG*kG*kT*k[5mC]) [compound 1074199],YAP1 (% UTC),[2]; [8],101 % UTC
1074208 (antisense kG*kT*kG*d[5mC]*dA*d[5mC]*dG*dA*dT*d[5mC]*dT*dG*dA*kT*kG*k[5mC]) [Compound 1074208],YAP1 (% UTC),[2]; [3],96 % UTC
1074209 (antisense k[5mC]*k[5mC]*kG*dG*dA*dG*d[5mC]*d[5mC]*dT*d[5mC]*dA*dT*dG*kG*kG*k[5mC]) [Compound 1074209],YAP1 (% UTC),[2]; [4],72 % UTC
1074210 (antisense kT*k[5mC]*k[5mC]*dG*dG*dA*dG*d[5mC]*d[5mC]*dT*d[5mC]*dA*dT*kG*kG*kG) [Compound 1074210],YAP1 (% UTC),[2]; [5],113 % UTC
1074211 (antisense k[5mC]*kT*kT*d[5mC]*d[5mC]*dG*dG*dA*dG*d[5mC]*d[5mC]*dT*d[5mC]*kA*kT*kG) [Compound 1074211],YAP1 (% UTC),[2]; [6],67 % UTC
1074231 (antisense kA*kA*kA*dG*dA*dA*dG*dA*d[5mC]*dT*dG*dT*d[5mC]*kG*kA*kA) [compound 1074231],YAP1 (% UTC),[2]; [8],8 % UTC
1074240 (antisense k[5mC]*kT*kG*dG*d[5mC]*dA*dG*dA*dG*dG*dT*dA*d[5mC]*kA*kT*k[5mC]) [Compound 1074240],YAP1 (% UTC),[2]; [3],29 % UTC
1074241 (antisense kG*kA*kT*dG*dT*d[5mC]*dT*dT*dT*dG*d[5mC]*d[5mC]*dA*kT*k[5mC]*kT) [Compound 1074241],YAP1 (% UTC),[2]; [4],72 % UTC
1074242 (antisense kA*kG*kA*dA*dG*dA*dT*dG*dT*d[5mC]*dT*dT*dT*kG*k[5mC]*k[5mC]) [Compound 1074242],YAP1 (% UTC),[2]; [5],56 % UTC
1074243 (antisense kT*k[5mC]*kT*dG*dA*d[5mC]*d[5mC]*dA*dG*dA*dA*dG*dA*kT*kG*kT) [Compound 1074243],YAP1 (% UTC),[2]; [6],60 % UTC
1074262 (antisense kG*k[5mC]*k[5mC]*dG*dA*dG*dT*dT*d[5mC]*dA*dT*d[5mC]*dA*kT*kA*kT) [compound 1074262],YAP1 (% UTC),[2]; [7],48 % UTC
1074263 (antisense kA*kG*k[5mC]*d[5mC]*dG*dA*dG*dT*dT*d[5mC]*dA*dT*d[5mC]*kA*kT*kA) [compound 1074263],YAP1 (% UTC),[2]; [8],34 % UTC
1074272 (antisense kT*kA*kT*dA*dG*dT*dA*dA*dA*dT*dT*dT*d[5mC]*kT*k[5mC]*k[5mC]) [Compound 1074272],YAP1 (% UTC),[2]; [3],16 % UTC
1074273 (antisense k[5mC]*kT*kT*dA*dT*dG*dG*dT*dT*dT*dA*dT*dA*kT*kA*kG) [Compound 1074273],YAP1 (% UTC),[2]; [4],34 % UTC
1074274 (antisense kG*kT*kT*d[5mC]*dT*dT*dA*dT*dG*dG*dT*dT*dT*kA*kT*kA) [Compound 1074274],YAP1 (% UTC),[2]; [5],4 % UTC
